Values after ≈ are worked out from the molar mass of the structure shown. Like-named read-outs stand apart in the source and are kept apart here.
Assays:
CMV Davis strain = experiment: Activity against HCMV: virus-induced cytopathicity in HEL cells; type: cell-based, human cytomegalovirus (HCMV); settings: for IC50: read-out: Antiviral IC50 (μg/ml) Davis strain; for Antiviral % Inhibition Davis strain: estimate of percent protection of HEL cells at the compound concentration
Method: Confluent HEL cells grown in […] microtiter plates were inoculated with CMV at an input of 100 PFU (plaque forming units) per well. After a one to two hour incubation period, residual virus was removed and the infected cells were further incubated with MEM (Minimal Essential Medium) (supplemented with 2% inactivated Fetal Calf Serum (FCS), […], and 0.3% sodium bicarbonate) containing varying concentrations of the test compounds. Antiviral activity was expressed as EC50 (50% effective concentration), or test compound concentration required to reduce virus-induced cytopathicity after seven days by 50% compared to the untreated control.
In some cases, the compounds had considerable cytotoxicity against HEL cells, which made determination of the EC50's difficult. In these cases, an estimate of the percent protection at the compound concentration indicated in the previous columns is given.

HIV-1 (IIIB) = experiment: Inhibition of HIV-1 syncytium formation in CEM cells; type: cell-based; settings: for EC50: read-out: EC50 (μg/ml) HIV-1; for HIV-1 % Protection: protection of CEM cells against virus-induced cytopathicity at the compound concentration in the previous column
From the text: (§1) The cell type used to determine activity of the compounds of the invention herein, i.e., the test compounds, against HIV was human T-lymphoblast (CEM) cells obtained from the American Tissue Cell Culture Collection (Rockville, Md.). HIV-1 (IIIB) was originally obtained from the culture of persistently HIV-1 infected H9 cells and was provided by R. C. Gallo and M. Popovic (National Cancer Institute, National Institutes of Health, Bethesda, Md.). HIV-2 (ROD) was originally obtained from L. M. Montagnier (Pasteur Institute, Paris, France).
(§2) To determine the antiviral activity of the test compounds, CEM cells were suspended at a cell density of approximately 300,000 cells per ml of culture medium and infected with approximately 100 CClD50 (100 CClD50 being the 50% cell culture infective dose) of HIV-1 (IIIB) or HIV-2 (ROD)). Then 100 μl of the infected cell suspensions was added to 200 μl micro titer plate wells containing 100 μl of appropriate serial (5-fold) dilutions of the test compounds. The inhibitory effect of the test compounds on HIV-1 or HIV-2 syncytium formation in CEM cells was examined microscopically on day four post infection. The 50% effective concentration (EC50) was defined as the test compound concentration that inhibits syncytium formation in the HIV-1 or HIV-2 infected cell cultures by 50%.
(§3) In some cases, the compounds had considerable cytotoxicity to CEM cells which made determination of the EC50 difficult. In these cases, the percent protection of the cells against virus-induced cytopathicity by the test compounds at the indicated compound concentration in the previous column is given.

HIV-2 (ROD) = experiment: Inhibition of HIV-2 syncytium formation in CEM cells; type: cell-based; settings: for EC50: Human immunodeficiency virus 2, CCRF-CEM, read-out: EC50 (μg/ml) HIV-2; for HIV-2 % Protection: protection of CEM cells against virus-induced cytopathicity at the compound concentration in the previous column
From the text: as §1, §2, §3

[1] = Human betaherpesvirus 5, 168 h, CMV-infected HEL cells, virus-induced cytopathicity after seven days
[2] = Human immunodeficiency virus 1, CCRF-CEM, HIV-1 (IIIB) infected CEM cells, syncytium formation, day four post infection
[3] = HIV-2 (ROD) infected CEM cells, syncytium formation, day four post infection
[4] = Human betaherpesvirus 5, HEL, 168 h
[5] = Human immunodeficiency virus 1, IIIB, CCRF-CEM
[6] = CMV-infected HEL cells, virus-induced cytopathicity after seven days
[7] = HIV-1 (IIIB) infected CEM cells, syncytium formation, day four post infection

Compound	IC50 (CMV Davis strain; [1])	EC50 (HIV-1 (IIIB); [2])	EC50 (HIV-2 (ROD); [3])	HIV-2 % Protection (HIV-2 (ROD))	Antiviral % Inhibition Davis strain (CMV Davis strain)	further results
Cc1ccc(C)c(C(Cl)S(=O)(=O)c2ccccn2)c1 (stereo not shown) [Compound 106, 2[(2,5-dimethylphenyl)chloromethylsulfonyl]pyridine]	20 µg/mL (≈ 67.6 µM)	0.9 µg/mL (≈ 3.04 µM)	> 4 µg/mL	0.0%	–	melting point: 117 to 119 °C
O=[N+]([O-])c1cc(CS(=O)(=O)c2cccc[n+]2[O-])ccc1Cl [Compound 64, 2-[[(3-nitro-4-chlorophenyl)methyl]sulfonyl]pyridine-N-oxide]	> 5 µg/mL	1.5 µg/mL (≈ 4.56 µM)	1.9 µg/mL (≈ 5.78 µM)	–	10.0%	melting point: 168 to 170 °C
Cc1ccc(C)c(C(C)S(=O)(=O)c2cc(C)cc(C)[n+]2[O-])c1 (stereo not shown) [Compound 81, 2-[1-(2,5-dimethylphenyl)ethylsulfonyl]-4,6-dimethylpyridine-N-oxide]	8.6 µg/mL (≈ 26.9 µM)	≥ 20 µg/mL	> 20 µg/mL	0.0%	–	melting point: 201 to 204 °C; HIV-1 % Protection (HIV-1 (IIIB)): 37.5%
COc1cc(C=C(C#N)Sc2cccc[n+]2[O-])cc(OC)c1OC [Compound 160, 2-[1-cyano-2-(3,4,5-trimethoxyphenyl)ethenethio]pyridine-N-oxide]	–	–	–	0.0%	–	IC50 (CMV Davis strain; [4]): 7 µg/mL (≈ 20.3 µM); EC50 (HIV-1 (IIIB); [5]): > 20 µg/mL; HIV-1 % Protection (HIV-1 (IIIB)): 0.0%; EC50 (HIV-2 (ROD)): > 20 µg/mL
[O-][n+]1cc(Cl)ccc1SCc1ccccc1 [Compound 151, 5-chloro-2(benzylthio)pyridine-N-oxide]	–	–	–	0.0%	20.0%	IC50 (CMV Davis strain; [4]): > 20 µg/mL; EC50 (HIV-1 (IIIB); [5]): > 20 µg/mL; HIV-1 % Protection (HIV-1 (IIIB)): 0.0%; EC50 (HIV-2 (ROD)): > 20 µg/mL
Cc1ccc(C)c(CSc2ccccn2)c1.Cl [Compound 157, 2-(2,5-dimethylphenylmethylthio)pyridine hydrochloride]	> 50 µg/mL	6 µg/mL	≥ 20 µg/mL	37.5%	0.0%	–
[O-][n+]1c(Cl)cccc1SCc1ccccc1 [Compound 149, 6-chloro-(2-benzylthio)pyridine-N-oxide]	–	–	–	–	–	melting point: 112 to 115 °C; IC50 (CMV Davis strain; [4]): 20 µg/mL (≈ 79.4 µM); EC50 (HIV-1 (IIIB); [5]): 9 µg/mL (≈ 35.8 µM); EC50 (HIV-2 (ROD)): 16 µg/mL (≈ 63.6 µM)
Cc1ccc(N)cc1C(C)S(=O)(=O)c1cccc[n+]1[O-] (stereo not shown) [Compound 1, 2-[[1-(5-amino-2-methylphenyl)ethyl]sulfonyl]pyridine-N-oxide]	> 50 µg/mL	20 µg/mL (≈ 68.4 µM)	41 µg/mL (≈ 140 µM)	–	0.0%	–
[O-][n+]1cccc(Cl)c1[S+]([O-])Cc1ccccc1 (stereo not shown) [Compound 136, 3-chloro-2-[(phenylmethyl)sulfinyl]pyridine-N-oxide]	4.7 µg/mL (≈ 17.6 µM)	1.5 µg/mL (≈ 5.6 µM)	> 4 µg/mL	0.0%	–	–
Cc1ccc(C)c(CSc2c(Cl)ccc[n+]2[O-])c1 [Compound 133, 3-chloro-2-[[(2,5-dimethylphenyl)methyl]thio]pyridine-N-oxide]	–	–	–	0.0%	–	IC50 (CMV Davis strain; [4]): 25 µg/mL (≈ 89.4 µM); EC50 (HIV-1 (IIIB); [5]): 0.14 µg/mL (≈ 0.5 µM); EC50 (HIV-2 (ROD)): > 20 µg/mL
O=S(=O)(Cc1c2ccccc2cc2ccccc12)c1cccc[n+]1[O-] [Compound 51, 2[1-(9-anthryl)methylsulfonyl]pyridine-N-oxide]	1.3 µg/mL (≈ 3.72 µM)	> 0.8 µg/mL	> 0.8 µg/mL	0.0%	–	HIV-1 % Protection (HIV-1 (IIIB)): 0.0%
O=[N+]([O-])c1cccnc1SCc1ccccc1 [Compound 146, 2-benzylthio-3-nitropyridine]	–	–	–	37.5%	–	IC50 (CMV Davis strain; [4]): 40 µg/mL (≈ 162 µM); EC50 (HIV-1 (IIIB); [5]): 2.3 µg/mL (≈ 9.34 µM); EC50 (HIV-2 (ROD)): ≥ 20 µg/mL
[O-][n+]1cccc(Cl)c1SCc1ccccc1 [Compound 132, 3-chloro-2-[(phenylmethyl)thio]pyridine-N-oxide]	–	–	–	0.0%	0.0%	IC50 (CMV Davis strain; [4]): > 50 µg/mL; EC50 (HIV-1 (IIIB); [5]): 2.4 µg/mL (≈ 9.53 µM); EC50 (HIV-2 (ROD)): > 20 µg/mL
1,4[1,2,4,5-tetramethylbenzyl]-bis-(2′-sulfonylpyridine-N-oxide) [Compound 25]	–	–	–	37.5%	–	Antiviral IC50 (μg/ml) Davis strain (CMV Davis strain; [6]): 16.0 µg/mL; EC50 (μg/ml) HIV-1 (HIV-1 (IIIB); [7]): 10.00 µg/mL
O=[N+]([O-])c1cc(CS(=O)(=O)c2cccc[n+]2[O-])cc([N+](=O)[O-])c1 [Compound 65, 2-[[(3,5-dinitrophenyl)methyl]sulfonyl]pyridine-N-oxide]	5 µg/mL (≈ 14.7 µM)	2.8 µg/mL (≈ 8.25 µM)	3.5 µg/mL (≈ 10.3 µM)	–	–	–
CCC(C)(C)c1ccc(CS(=O)(=O)c2cccc[n+]2[O-])cc1 [Compound 40, 2-(4′-tert-pentylphenylmethylsulfonyl)pyridine-N-oxide]	1.5 µg/mL (≈ 4.7 µM)	3.1 µg/mL (≈ 9.7 µM)	3.4 µg/mL (≈ 10.6 µM)	–	–	–
2-(2,5-dimethylphenyl)methylsulfinyl)pyridine [Compound 163]	–	–	–	0.0%	0.0%	Antiviral IC50 (μg/ml) Davis strain (CMV Davis strain; [6]): >50 µg/mL; EC50 (μg/ml) HIV-1 (HIV-1 (IIIB); [7]): 3.25 µg/mL; EC50 (μg/ml) HIV-2 (HIV-2 (ROD); [3]): >100 µg/mL
O=[N+]([O-])c1ccc(CS(=O)(=O)c2cccc[n+]2[O-])c(Cl)c1 [Compound 69, 2-[[(2-chloro-4-nitrophenyl)methyl]sulfonyl]pyridine-N-oxide]	> 5 µg/mL	2.9 µg/mL (≈ 8.82 µM)	2.9 µg/mL (≈ 8.82 µM)	–	20.0%	–
Cc1ccc(C)c(C(C)S(=O)(=O)c2cccc(Cl)[n+]2[O-])c1 (stereo not shown) [Compound 76, 2-[1-(2,5-dimethylphenyl)ethylsulfonyl]-6-chloropyridine-N-oxide]	> 9.1 µg/mL	0.9 µg/mL (≈ 2.76 µM)	2.4 µg/mL (≈ 7.37 µM)	–	–	melting point: 197 to 200 °C
CCc1cccc2c(C)cc(S(=O)(=O)C(C)c3ccccc3)nc12 (stereo not shown) [Compound 107, 8-ethyl-4-methyl-2-[(1-phenylethyl)sulfonyl]quinoline]	> 20 µg/mL	0.65 µg/mL (≈ 1.91 µM)	> 100 µg/mL	–	0.0%	–
1,4-xylyl-bis-2-sulfonyl pyridine-N-oxide [Compound 23]	–	–	–	37.5%	20.0%	Antiviral IC50 (μg/ml) Davis strain (CMV Davis strain; [6]): >20 µg/mL; HIV-1 % Protection (HIV-1 (IIIB)): 37.5%
Cc1ccc[n+]([O-])c1S(=O)(=O)Cc1c(Cl)cccc1Cl [Compound 139, 2-[[(2,6-dichlorophenyl)methyl]sulfonyl]-3-methyl-pyridine-N-oxide]	43 µg/mL (≈ 129 µM)	> 20 µg/mL	> 20 µg/mL	0.0%	–	HIV-1 % Protection (HIV-1 (IIIB)): 0.0%

From US6498254B1, “Antiretroviral compounds and compositions” (Uniroyal Chemical Company, Inc., priority 2001, dated 2002)
